Publication PMC6962712, “Glucose-6-Phosphate Upregulates Txnip Expression by Interacting With MondoA” (Frontiers in Molecular Biosciences, 2020)

Biological target: T1, MondoA/Mlx (Homo sapiens, UniProt Q9HAP2)
T1 construct: gene MLXIP; endogenous full-length MondoA/Mlx heterodimer in nuclear extract of Bcap37 cells, not purified; with Max-like protein X
T1 sequence (Q9HAP2 2-919): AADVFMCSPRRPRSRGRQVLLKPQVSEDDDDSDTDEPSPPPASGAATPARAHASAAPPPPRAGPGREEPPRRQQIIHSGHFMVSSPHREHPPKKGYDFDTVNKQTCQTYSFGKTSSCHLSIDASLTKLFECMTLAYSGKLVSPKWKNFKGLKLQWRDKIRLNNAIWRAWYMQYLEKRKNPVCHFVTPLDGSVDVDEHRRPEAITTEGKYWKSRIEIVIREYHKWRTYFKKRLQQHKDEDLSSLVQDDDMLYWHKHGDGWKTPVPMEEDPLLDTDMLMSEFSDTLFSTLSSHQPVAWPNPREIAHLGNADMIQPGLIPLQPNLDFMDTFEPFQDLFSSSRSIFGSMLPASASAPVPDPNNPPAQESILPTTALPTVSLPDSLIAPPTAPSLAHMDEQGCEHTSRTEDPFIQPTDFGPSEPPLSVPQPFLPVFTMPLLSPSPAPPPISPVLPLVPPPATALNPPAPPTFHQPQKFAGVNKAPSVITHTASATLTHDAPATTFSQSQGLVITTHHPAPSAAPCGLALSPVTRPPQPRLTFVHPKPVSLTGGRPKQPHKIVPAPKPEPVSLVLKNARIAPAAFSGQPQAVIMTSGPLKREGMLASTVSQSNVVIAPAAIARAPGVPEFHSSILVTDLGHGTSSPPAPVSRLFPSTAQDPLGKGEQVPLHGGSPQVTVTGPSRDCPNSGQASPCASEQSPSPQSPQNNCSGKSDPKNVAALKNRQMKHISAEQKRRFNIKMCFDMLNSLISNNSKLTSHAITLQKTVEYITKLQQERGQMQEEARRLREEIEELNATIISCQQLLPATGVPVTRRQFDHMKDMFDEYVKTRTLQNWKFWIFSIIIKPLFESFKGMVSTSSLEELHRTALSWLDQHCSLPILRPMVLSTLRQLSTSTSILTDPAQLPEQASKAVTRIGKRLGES
T1 sequence (Q9UH92 1-298 partner): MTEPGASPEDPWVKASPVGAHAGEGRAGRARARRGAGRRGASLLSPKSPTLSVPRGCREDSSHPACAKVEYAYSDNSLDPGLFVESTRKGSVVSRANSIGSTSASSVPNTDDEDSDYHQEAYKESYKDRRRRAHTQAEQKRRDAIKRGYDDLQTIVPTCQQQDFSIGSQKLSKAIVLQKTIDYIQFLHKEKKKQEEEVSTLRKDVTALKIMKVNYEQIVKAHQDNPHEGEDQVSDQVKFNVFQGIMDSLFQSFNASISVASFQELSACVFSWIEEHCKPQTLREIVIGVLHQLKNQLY
Experiment: EMSA, biotinylated Txnip ChoRE probe
Assay type: biochemical
Conditions: Bcap37 nuclear extract; G6PNa2 added in vitro (e.g. 0.05 and 0.25 mM); activator of promoter binding; indirect read-out, not a direct binding test

For O=P(O)(O)OC[C@H]1OC(O)[C@H](O)[C@@H](O)[C@@H]1O (stereo partly shown) [G6PNa2], the “EMSA, biotinylated Txnip ChoRE probe” value was “binding of MondoA to the promoter probe was significantly promoted by the activation of G6PNa2”.
